Results on 2 compounds are retold here after ChEMBL document CHEMBL1157522 (Bioorg Med Chem Lett, 2008).

The half-life is the time in which the quantity being followed falls by half. A word on the clearance: it is a measure of how efficiently the substance is removed, as volume per time. The low end stands for a low capacity for elimination, the high end for a high capacity for elimination. In general, bioavailability refers to the share of a dose that reaches the circulation, judged against a reference dose that is usually intravenous. As usually defined, the Vdss is the apparent volume that relates the amount in the body to the concentration in plasma or blood. High values mean wide distribution into tissue, low ones little distribution into tissue.

Activity calls are given as the source filed them. The rule behind the calls is not given here.

Data set [1] is described as follows: Half life in dog at 0.2 mg/kg, po. It counts as ADME, organism-based, Canis lupus familiaris. Also on record: dose 0.2 mg/kg, route oral. The following applies: in vivo.
In data set [2] the target is Coagulation factor IX (Homo sapiens) (UniProt P00740). The data set is described as follows: Inhibition of human factor 9a.
The nature of data set [3]: Metabolic stability in human liver microsomes assessed as half life. The class given is ADME, Microsome.
Data set [4] can be described thus: Clearance in dog at 0.5 mg/kg, iv. The class given is ADME, organism-based, Canis lupus familiaris. More on the design: dose 0.5 mg/kg, route intravenous. The following applies: in vivo.
Data set [5] is described as follows: (§1) Volume of distribution at steady state in dog. The settings on record: in vivo, read-out: Vdss. The class given is ADME, organism-based, Canis lupus familiaris.
The target in data set [6] is T1, Coagulation factor VII (Homo sapiens) (UniProt P08709).
T1 sequence (whole entry): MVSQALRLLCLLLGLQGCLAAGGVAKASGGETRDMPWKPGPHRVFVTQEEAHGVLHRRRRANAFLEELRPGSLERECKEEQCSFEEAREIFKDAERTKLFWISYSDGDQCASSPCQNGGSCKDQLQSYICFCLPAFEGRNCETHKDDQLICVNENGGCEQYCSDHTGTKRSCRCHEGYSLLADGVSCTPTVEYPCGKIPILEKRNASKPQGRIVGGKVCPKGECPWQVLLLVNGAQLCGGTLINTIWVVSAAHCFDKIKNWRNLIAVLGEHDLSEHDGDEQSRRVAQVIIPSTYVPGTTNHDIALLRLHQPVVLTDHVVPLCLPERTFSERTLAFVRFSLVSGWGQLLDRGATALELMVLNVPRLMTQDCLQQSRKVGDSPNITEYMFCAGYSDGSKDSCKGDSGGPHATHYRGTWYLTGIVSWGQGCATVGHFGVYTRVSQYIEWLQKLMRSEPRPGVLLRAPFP
The data set is described as follows: Inhibition of human factor 7a.

In data set [7] the target is Tissue-type plasminogen activator (Homo sapiens) (UniProt P00750). The data set is described as follows: Inhibition of human tPA.
Data set [8] has as its target Plasma kallikrein (Homo sapiens) (UniProt P03952). Put plainly: Inhibition of human plasma kallikrein. It counts as cell-free.
The species named for the next data set is Homo sapiens. The data set is described as follows: Inhibition of human chymotrypsin.
The target of data set [9] is Vitamin K-dependent protein C (Homo sapiens) (UniProt P04070). Put plainly: Inhibition of human activated protein C.
Data set [10] concerns the target Plasminogen (Homo sapiens) (UniProt P00747). Put plainly: Inhibition of human plasmin.
Data set [11] is described as follows: Bioavailability in dog at 0.5 mg/kg, iv. It counts as ADME, organism-based, Canis lupus familiaris. The settings on record: in vivo.
The species entered for another data set is Canis familiaris. The description is as §1. It counts as ADME, organism-based, Canis lupus familiaris. The following applies: in vivo.

Tissue-type plasminogen activator (Homo sapiens), sequence (P00750 36-562 limits assumed): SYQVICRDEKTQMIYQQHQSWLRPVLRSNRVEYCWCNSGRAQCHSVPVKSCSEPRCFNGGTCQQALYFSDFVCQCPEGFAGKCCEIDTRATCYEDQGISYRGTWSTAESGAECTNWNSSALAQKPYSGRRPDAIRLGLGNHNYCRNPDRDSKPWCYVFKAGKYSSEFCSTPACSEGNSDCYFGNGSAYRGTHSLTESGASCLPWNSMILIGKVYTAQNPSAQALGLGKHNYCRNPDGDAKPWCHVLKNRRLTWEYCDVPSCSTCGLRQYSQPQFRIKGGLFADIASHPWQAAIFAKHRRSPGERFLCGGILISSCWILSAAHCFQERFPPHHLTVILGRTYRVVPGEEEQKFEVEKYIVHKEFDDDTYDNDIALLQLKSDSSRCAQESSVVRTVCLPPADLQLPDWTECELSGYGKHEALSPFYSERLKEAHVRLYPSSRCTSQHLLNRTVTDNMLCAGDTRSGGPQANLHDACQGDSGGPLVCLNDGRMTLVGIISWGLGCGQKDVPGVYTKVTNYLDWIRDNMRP
Plasminogen (Homo sapiens), sequence (P00747 97-580 limits assumed): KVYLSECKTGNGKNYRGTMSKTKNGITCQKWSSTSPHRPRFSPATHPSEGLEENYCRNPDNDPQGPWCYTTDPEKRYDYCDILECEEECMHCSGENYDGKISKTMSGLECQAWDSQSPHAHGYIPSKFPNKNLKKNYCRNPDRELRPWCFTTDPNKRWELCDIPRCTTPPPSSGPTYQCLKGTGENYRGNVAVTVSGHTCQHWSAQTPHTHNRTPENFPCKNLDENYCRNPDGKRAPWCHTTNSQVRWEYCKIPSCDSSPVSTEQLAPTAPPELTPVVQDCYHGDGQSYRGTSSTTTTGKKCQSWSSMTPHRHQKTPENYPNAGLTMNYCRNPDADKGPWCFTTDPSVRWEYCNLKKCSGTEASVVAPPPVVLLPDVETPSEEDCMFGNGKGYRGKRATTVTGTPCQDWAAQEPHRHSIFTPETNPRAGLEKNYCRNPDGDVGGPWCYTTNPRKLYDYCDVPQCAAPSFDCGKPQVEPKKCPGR
Plasminogen (Homo sapiens), sequence (P00747 581-810 limits assumed): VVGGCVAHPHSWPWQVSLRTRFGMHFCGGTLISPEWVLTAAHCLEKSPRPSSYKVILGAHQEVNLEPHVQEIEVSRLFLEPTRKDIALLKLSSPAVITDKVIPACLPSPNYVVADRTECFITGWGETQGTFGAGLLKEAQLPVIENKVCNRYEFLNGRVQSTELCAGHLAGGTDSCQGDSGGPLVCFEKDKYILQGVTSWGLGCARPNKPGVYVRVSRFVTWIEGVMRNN
Vitamin K-dependent protein C (Homo sapiens), sequence (P04070 43-197 limits assumed): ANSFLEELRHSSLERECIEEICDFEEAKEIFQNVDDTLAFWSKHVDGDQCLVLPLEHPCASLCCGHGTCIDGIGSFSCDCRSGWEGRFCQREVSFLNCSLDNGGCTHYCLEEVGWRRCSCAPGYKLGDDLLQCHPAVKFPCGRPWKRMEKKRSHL
Vitamin K-dependent protein C (Homo sapiens), sequence (P04070 212-461 limits assumed): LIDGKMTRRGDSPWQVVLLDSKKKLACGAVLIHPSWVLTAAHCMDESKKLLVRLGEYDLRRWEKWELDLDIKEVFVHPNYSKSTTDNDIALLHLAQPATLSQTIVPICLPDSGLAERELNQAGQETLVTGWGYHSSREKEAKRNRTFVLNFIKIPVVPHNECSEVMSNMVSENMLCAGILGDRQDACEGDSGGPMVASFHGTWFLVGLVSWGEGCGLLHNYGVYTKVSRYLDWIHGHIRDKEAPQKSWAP
Coagulation factor IX (Homo sapiens), sequence (P00740 47-191 limits assumed): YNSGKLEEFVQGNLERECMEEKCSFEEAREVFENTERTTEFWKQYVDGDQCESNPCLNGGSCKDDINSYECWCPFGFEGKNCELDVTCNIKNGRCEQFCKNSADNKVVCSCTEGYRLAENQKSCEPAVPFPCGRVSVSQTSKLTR
Coagulation factor IX (Homo sapiens), sequence (P00740 227-461 limits assumed): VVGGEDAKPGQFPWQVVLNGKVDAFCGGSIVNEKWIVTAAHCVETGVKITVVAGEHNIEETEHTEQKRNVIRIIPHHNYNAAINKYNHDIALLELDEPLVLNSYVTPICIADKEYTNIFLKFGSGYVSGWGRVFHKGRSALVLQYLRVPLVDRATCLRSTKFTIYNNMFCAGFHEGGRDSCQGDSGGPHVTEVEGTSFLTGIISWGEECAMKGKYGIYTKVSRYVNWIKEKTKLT
Plasma kallikrein (Homo sapiens), sequence (P03952 20-390 limits assumed): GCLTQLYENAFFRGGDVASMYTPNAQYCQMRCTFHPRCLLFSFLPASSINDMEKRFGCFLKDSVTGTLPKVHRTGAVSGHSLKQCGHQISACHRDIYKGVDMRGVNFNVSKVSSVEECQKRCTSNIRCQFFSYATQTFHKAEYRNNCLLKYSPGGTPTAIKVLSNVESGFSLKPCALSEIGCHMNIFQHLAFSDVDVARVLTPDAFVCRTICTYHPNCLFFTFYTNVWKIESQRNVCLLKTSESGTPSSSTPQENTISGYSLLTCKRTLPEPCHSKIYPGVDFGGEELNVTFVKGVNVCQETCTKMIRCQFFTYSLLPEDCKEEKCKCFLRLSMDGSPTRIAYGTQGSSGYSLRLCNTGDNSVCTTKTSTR
Plasma kallikrein (Homo sapiens), sequence (P03952 391-638 limits assumed): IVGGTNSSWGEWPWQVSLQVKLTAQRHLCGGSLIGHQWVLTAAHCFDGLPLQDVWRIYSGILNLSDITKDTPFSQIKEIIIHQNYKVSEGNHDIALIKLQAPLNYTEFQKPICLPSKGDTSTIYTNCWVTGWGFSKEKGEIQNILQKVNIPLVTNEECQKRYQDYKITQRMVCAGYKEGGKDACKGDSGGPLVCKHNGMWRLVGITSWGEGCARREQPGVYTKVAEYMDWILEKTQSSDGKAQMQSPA

For `COc1ccc(-n2nc(C(F)(F)F)c3c2C(=O)N(c2ccc(C4(CN(C)C)CC4)cc2)CC3)cc1`, the half-life in data set [1] was 12 h; in data set [3] it was 1.83 h. The outcome (in data set [2]; in data set [6]; in data set [7]; in data set [8]; in the data set listed under Homo sapiens; in data set [9]) was inactive. Moreover, the outcome in data set [10] was inactive. This compound also showed a clearance in data set [4] of 20 mL/min/kg. Further, the Vd in data set [5] turned out to be 15 L/kg. This compound also came in with a bioavailability in data set [11] of 53%.
Consider `CN(C)Cc1nccn1-c1ccc(NC(=O)c2cc(C(F)(F)F)nn2-c2ccc3onc(N)c3c2)c(F)c1` [RAZAXABAN], for which, in data set [3], the half-life stood at 0.6 h. For the same compound, the Vdss in the data set listed under Canis familiaris amounted to 5.3 L/kg. Also, the bioavailability in data set [11] was determined as 84%.
